One block for each compound: values may come before it.
Columns and labels:
[1] = molecular target: PI3K-gamma (Homo sapiens, UniProt P48736); assay: PI3K-gamma fluorescence polarization assay; assay type: biochemical; settings: PI3Kγ Avg. IC50
Outline: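 Reactions in 5 mM HEPES pH 7, 2.5 mM MgCl2, 25 μM ATP with 2.5 μM diC8-PI(4,5)P2 and 5 ng enzyme, 1 h at 25° C, then EDTA quench. Product detected by FP using GST-GRP1 PH domain (100 nM) and BODIPY-TMR-IP4 tracer (5 nM); final DMSO 0.8%.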

[2] = molecular target: PI3K-alpha (Homo sapiens, UniProt P42336); assay: PI3K-alpha fluorescence polarization assay; assay type: biochemical; settings: read-out: PI3Kα Avg. IC50
PI3K-alpha, sequence (P42336 whole entry, species assumed): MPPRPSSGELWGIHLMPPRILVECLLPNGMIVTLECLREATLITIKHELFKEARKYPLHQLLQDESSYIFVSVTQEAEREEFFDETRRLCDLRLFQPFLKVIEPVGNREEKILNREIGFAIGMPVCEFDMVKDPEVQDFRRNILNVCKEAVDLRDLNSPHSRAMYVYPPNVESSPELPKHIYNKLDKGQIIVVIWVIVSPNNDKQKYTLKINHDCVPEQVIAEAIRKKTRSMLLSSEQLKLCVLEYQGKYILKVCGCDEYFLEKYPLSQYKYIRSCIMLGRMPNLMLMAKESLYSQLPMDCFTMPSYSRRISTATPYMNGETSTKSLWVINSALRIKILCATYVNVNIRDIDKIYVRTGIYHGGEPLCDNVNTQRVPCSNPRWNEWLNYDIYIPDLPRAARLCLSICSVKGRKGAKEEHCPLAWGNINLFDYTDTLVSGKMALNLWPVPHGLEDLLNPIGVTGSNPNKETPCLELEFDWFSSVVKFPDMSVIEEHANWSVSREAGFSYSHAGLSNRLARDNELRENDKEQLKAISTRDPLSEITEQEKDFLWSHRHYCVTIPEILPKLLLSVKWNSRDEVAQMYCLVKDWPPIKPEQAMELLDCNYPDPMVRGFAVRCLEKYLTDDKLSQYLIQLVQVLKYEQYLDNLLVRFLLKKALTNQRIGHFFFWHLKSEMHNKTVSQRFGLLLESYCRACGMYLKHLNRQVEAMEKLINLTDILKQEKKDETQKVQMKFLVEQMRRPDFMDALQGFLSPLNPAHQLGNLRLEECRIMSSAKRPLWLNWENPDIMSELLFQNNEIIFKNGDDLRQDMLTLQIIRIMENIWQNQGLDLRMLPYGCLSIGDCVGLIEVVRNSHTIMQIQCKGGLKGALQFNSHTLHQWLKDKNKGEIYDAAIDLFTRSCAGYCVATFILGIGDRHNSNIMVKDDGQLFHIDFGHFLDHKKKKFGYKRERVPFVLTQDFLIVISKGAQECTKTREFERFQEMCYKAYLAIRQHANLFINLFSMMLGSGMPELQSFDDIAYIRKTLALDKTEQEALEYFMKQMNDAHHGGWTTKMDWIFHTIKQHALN
PI3K-alpha, sequence (P27986 whole entry partner, species assumed): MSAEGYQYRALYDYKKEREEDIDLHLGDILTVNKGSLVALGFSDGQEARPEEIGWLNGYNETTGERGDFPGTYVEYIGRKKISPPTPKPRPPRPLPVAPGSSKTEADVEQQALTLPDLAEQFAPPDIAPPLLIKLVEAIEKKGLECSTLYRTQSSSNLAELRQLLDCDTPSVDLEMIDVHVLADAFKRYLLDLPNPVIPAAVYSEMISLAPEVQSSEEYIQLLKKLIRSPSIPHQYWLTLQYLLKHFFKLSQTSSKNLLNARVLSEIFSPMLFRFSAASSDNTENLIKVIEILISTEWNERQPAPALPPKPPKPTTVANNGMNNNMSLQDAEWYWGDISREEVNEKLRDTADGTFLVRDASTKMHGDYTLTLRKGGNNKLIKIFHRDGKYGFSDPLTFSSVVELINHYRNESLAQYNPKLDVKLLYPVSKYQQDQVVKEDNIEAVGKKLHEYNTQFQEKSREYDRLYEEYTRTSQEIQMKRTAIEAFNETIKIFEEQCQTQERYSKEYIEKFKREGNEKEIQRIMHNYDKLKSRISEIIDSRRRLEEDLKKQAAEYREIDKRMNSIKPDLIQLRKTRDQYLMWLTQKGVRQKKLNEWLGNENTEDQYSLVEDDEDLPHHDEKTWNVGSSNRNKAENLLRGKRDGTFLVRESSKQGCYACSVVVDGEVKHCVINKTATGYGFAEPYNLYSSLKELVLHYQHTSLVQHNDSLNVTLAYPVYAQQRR

PI3K-gamma, sequence (P48736 whole entry, species assumed, the tested form may be a part): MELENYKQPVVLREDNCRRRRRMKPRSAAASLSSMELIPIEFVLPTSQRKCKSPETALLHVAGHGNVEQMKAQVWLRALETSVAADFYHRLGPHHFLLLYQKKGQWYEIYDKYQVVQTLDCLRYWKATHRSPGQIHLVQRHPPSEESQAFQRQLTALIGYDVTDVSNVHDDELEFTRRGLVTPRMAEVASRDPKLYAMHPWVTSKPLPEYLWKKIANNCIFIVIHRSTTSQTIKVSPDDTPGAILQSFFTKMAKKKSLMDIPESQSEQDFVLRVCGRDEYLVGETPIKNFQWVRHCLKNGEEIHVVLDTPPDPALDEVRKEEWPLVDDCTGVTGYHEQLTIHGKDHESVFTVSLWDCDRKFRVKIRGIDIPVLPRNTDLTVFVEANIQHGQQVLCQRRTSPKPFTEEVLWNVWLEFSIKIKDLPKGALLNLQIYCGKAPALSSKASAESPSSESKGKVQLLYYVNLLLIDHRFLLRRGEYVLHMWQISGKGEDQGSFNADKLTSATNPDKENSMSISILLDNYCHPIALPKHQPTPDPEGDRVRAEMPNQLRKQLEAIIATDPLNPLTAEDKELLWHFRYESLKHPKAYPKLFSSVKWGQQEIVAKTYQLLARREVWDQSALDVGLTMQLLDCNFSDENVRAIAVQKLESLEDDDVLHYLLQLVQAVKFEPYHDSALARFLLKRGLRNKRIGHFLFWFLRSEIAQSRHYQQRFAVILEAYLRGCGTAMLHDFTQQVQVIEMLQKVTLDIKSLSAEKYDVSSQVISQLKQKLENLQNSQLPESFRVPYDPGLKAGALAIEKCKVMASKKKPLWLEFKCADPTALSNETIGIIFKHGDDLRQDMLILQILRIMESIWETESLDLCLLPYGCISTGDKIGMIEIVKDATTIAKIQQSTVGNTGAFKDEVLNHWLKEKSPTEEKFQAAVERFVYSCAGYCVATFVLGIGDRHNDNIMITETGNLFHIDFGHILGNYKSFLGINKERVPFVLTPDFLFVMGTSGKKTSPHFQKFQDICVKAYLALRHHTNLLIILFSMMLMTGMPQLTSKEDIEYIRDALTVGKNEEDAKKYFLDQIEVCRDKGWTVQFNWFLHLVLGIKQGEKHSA

SMILES: COc1cccc2c1O/C(=C\c1c[nH]c3ccc(Br)cc13)C2=O [Compound 481, (2Z)-2-[(5-bromo-1H-indol-3-yl)methylene]-7-methoxy-1-benzofuran-3(2H)-one]
IC50 [1]: > 10000 nM | IC50 [2]: > 10000 nM

SMILES: Cn1c(-c2ccccc2)c(/C=C2\Oc3cc(O)cc(O)c3C2=O)c2c([N+](=O)[O-])cccc21 [Compound 499, (2Z)-4,6-dihydroxy-2-[(1-methyl-4-nitro-2-phenyl-1H-indol-3-yl)methylene]-1-benzofuran-3(2H)-one]
IC50 [1]: 3560 nM | IC50 [2]: 342 nM

SMILES: COc1cc(/C=C/CN2CCN(C)CC2)c2c(c1)c(/C=C1\Oc3cc(O)ccc3C1=O)cn2C [Compound 582, (2Z)-6-hydroxy-2-({5-methoxy-1-methyl-7-[(1E)-3-(4-methylpiperazin-1-yl)prop-1-en-1-yl]-1H-indol-3-yl}methylene)-1-benzofuran-3(2H)-one]
IC50 [1]: 3570 nM | IC50 [2]: 183 nM

SMILES: Cn1cc(/C=C2\Oc3ccc(Br)cc3C2=O)c2c(-c3ccccc3)cccc21 [Compound 527, (2Z)-5-bromo-2-[(1-methyl-4-phenyl-1H-indol-3-yl)methylene]-1-benzofuran-3(2H)-one]
IC50 [1]: 3810 nM | IC50 [2]: 2990 nM

SMILES: COc1cc(-c2cncnc2)c2c(c1)c(/C=C1\Oc3cc(O)ccc3C1=O)cn2CCCC#N [Compound 501, 4-{3-[(Z)-(6-hydroxy-3-oxo-1-benzofuran-2(3H)-ylidene)methyl]-5-methoxy-7-pyrimidin-5-yl-1H-indol-1-yl}butanenitrile]
IC50 [1]: 7000 nM | IC50 [2]: 701 nM

SMILES: COc1ccc2[nH]cc(CC3Oc4cc(O)cc(O)c4C3=O)c2c1 (stereo not drawn) [Example 117, 4,6-dihydroxy-2-[(5-methoxy-1H-indol-3-yl)methyl]-1-benzofuran-3(2H)-one]
IC50 [1]: 8600 nM | IC50 [2]: 1840 nM

SMILES: Cn1cc(C=C2Oc3cc(O)cc(O)c3C2=O)c2c(-c3ccccc3)cccc21 [Example 268, 4,6-dihydroxy-2-[(1-methyl-4-phenyl-1H-indol-3-yl)methylene]-1-benzofuran-3(2H)-one]
IC50 [1]: 2690 nM | IC50 [2]: > 5740 nM

SMILES: COc1ccc2c(c1)c(/C=C1\Oc3ccc(NC(C)=O)cc3C1=O)cn2CCCN(C)C [Compound 525, N-[(2Z)-2-({1-[3-(dimethylamino)propyl]-5-methoxy-1H-indol-3-yl}methylene)-3-oxo-2,3-dihydro-1-benzofuran-5-yl]acetamide]
IC50 [1]: > 10000 nM | IC50 [2]: 1270 nM

SMILES: COc1ccc2c(c1)c(C=C1Oc3c(ccc(O)c3O)C1=O)c(C)n2CCCCCl [Example 122, 2-{[1-(4-chlorobutyl)-5-methoxy-2-methyl-1H-indol-3-yl]methylene}-6,7-dihydroxyl-1-benzofuran-3(2H)-one]
IC50 [1]: 1500 nM | IC50 [2]: 137 nM

SMILES: CNC(=O)Nc1ccc2c(c1)C(=O)/C(=C/c1c(-c3nc(C4CC4)no3)[nH]c3ccc(OC)cc13)O2 [Compound 592, 1-[(2Z)-2-{[2-(3-cyclopropyl-1,2,4-oxadiazol-5-yl)-5-methoxy-1H-indol-3-yl]methylene}-3-oxo-2,3-dihydro-1-benzofuran-5-yl]-3-methylurea]
IC50 [1]: 8900 nM | IC50 [2]: 5.5 nM

SMILES: CNCCCNC(=O)Nc1ccc2c(c1)C(=O)/C(=C/c1cn(CCN3CCN(C)CC3)c3ccc(OC)cc13)O2 [Compound 564, 1-[(2Z)-2-({5-methoxy-1-[2-(4-methylpiperazin-1-yl)ethyl]-1H-indol-3-yl}methylene)-3-oxo-2,3-dihydro-1-benzofuran-5-yl]-3-[3-(methylamino)propyl]urea]
IC50 [1]: 7620 nM | IC50 [2]: 95.5 nM

SMILES: COc1ccc2[nH]c(C)c(CC3Oc4cc(O)cc(O)c4C3=O)c2c1 (stereo not drawn) [Example 119, 4,6-dihydroxy-2-[(5-methoxy-2-methyl-1H-indol-3-yl)methyl]-1-benzofuran-3(2H)-one]
IC50 [1]: > 10000 nM | IC50 [2]: 3830 nM

SMILES: COc1ccc2c(c1)c(/C=C1\Oc3ccc(CO)cc3C1=O)cn2CCN1CCN(C)CC1 [Compound 541, (2Z)-5-(hydroxymethyl)-2-({5-methoxy-1-[2-(4-methylpiperazin-1-yl)ethyl]-1Hindol-3-yl}methylene)-1-benzofuran-3(2H)-one]
IC50 [1]: 9100 nM | IC50 [2]: 1380 nM

SMILES: CNC(=O)Nc1ccc2c(c1)C(=O)/C(=C/c1c[nH]c3c(/C=C/CN(C)C)cc(OC)cc13)O2 [Compound 573, 1-[(2Z)-2-({7-[(1E)-3-(dimethylamino)prop-1-en-1-yl]-5-methoxy-1H-indol-3-yl}methylene)-3-oxo-2,3-dihydro-1-benzofuran-5-yl]-3-methylurea]
IC50 [1]: 1590 nM | IC50 [2]: 52 nM

SMILES: COc1ccc2[nH]cc(C=C3Oc4cc(OS(=O)(=O)C(F)(F)F)ccc4C3=O)c2c1 [Compound 494, 2-[(5-methoxy-1H-indol-3-yl)methylene]-3-oxo-2,3-dihydro-1-benzofuran-6-yl trifluoromethanesulfonate]
IC50 [1]: 9350 nM | IC50 [2]: > 10000 nM

SMILES: COc1ccc2[nH]cc(/C=C3\Oc4cc(O)c(O)cc4C3=O)c2c1 [Compound 529, (2Z)-5,6-dihydroxy-2-[(5-methoxy-1H-indol-3-yl)methylene]-1-benzofuran-3(2H)-one]
IC50 [1]: 8050 nM | IC50 [2]: 221 nM

SMILES: CNCCNC(=O)Nc1ccc2c(c1)C(=O)/C(=C/c1cn(CCN3CCN(C)CC3)c3ccc(OC)cc13)O2 [Compound 563, 1-[(2Z)-2-({5-methoxy-1-[2-(4-methylpiperazin-1-yl)ethyl]-1H-indol-3-yl}methylene)-3-oxo-2,3-dihydro-1-benzofuran-5-yl]-3-[2-(methylamino)ethyl]urea]
IC50 [1]: 5220 nM | IC50 [2]: 35.5 nM

SMILES: COc1ccc2c(c1)c(C=C1Oc3cccc(O)c3C1=O)c(C)n2CCCCN1CCN(CCO)CC1 [Example 137, 4-hydroxy-2-[(1-{4-[4-(2-hydroxyethyl)piperazin-1-yl]butyl}-5-methoxy-2-methyl-1H-indol-3-yl)methylene]-1-benzofuran-3(2H)-one]
IC50 [1]: 2770 nM | IC50 [2]: 478 nM

SMILES: COc1ccc2[nH]cc(/C=C3\Oc4ccc(Br)cc4C3=O)c2c1 [Compound 522, (2Z)-5-bromo-2-[(5-methoxy-1H-indol-3-yl)methylene]-1-benzofuran-3(2H)-one]
IC50 [1]: > 10000 nM | IC50 [2]: > 10000 nM

SMILES: CNC(=O)Nc1cc(O)cc2c1C(=O)/C(=C/c1c[nH]c3ccc(OC)cc13)O2 [Compound 526, 1-{(2Z)-6-hydroxy-2-[(5-methoxy-1H-indol-3-yl)methylene]-3-oxo-2,3-dihydro-1-benzofuran-4-yl}-3-methylurea]
IC50 [1]: > 10000 nM | IC50 [2]: 6190 nM

Stronger by IC50 [1], values ahead:

IC50 [1]: 128 nM | IC50 [2]: 24 nM
SMILES: CNC(=O)Nc1ccc2c(c1)C(=O)/C(=C/c1c(C(=O)N(C)C)[nH]c3ccc(OC)cc13)O2 [Compound 600, 5-methoxy-N,N-dimethyl-3-[(Z)-{5-[(methylcarbamoyl)amino]-3-oxo-1-benzofuran-2(3H)-ylidene}methyl]-1H-indole-2-carboxamide]

IC50 [1]: 264 nM | IC50 [2]: 268 nM
SMILES: O=C1/C(=C/c2c(-c3ccc(F)cc3)[nH]c3ccccc23)Sc2ccccc21 [Example 277, (2Z)-2-{[2-(4-fluorophenyl)-1H-indol-3-yl]methylene}-1-benzothiophen-3(2H)-one]

IC50 [1]: 714 nM | IC50 [2]: 82.5 nM
SMILES: COc1ccc2[nH]cc(/C=C3\Oc4cc(O)cc(CO)c4C3=O)c2c1 [Compound 517, (2Z)-6-hydroxy-4-(hydroxymethyl)-2-[(5-methoxy-1H-indol-3-yl)methylene]-1-benzofuran-3(2H)-one]

IC50 [1]: 121 nM | IC50 [2]: 15.5 nM
SMILES: CNC(=O)Nc1ccc2c(c1)C(=O)/C(=C/c1c(CN(C)C)[nH]c3ccc(OC)cc13)O2 [Compound 612, 1-[(2Z)-2-({2-[(dimethylamino)methyl]-5-methoxy-1H-indol-3-yl}methylidene)-3-oxo-2,3-dihydro-1-benzofuran-5-yl]-3-methylurea]

IC50 [1]: 136 nM | IC50 [2]: 9.5 nM
SMILES: CNC(=O)Nc1ccc2c(c1)C(=O)/C(=C/c1c(CN3CCN(C)CC3)[nH]c3ccc(OC)cc13)O2 [Compound 615, 1-[(2Z)-2-({5-methoxy-2-[(4-methylpiperazin-1-yl)methyl]-1H-indol-3-yl}methylidene)-3-oxo-2,3-dihydro-1-benzofuran-5-yl]-3-methylurea]

IC50 [1]: 446 nM | IC50 [2]: 15 nM
SMILES: CNC(=O)Nc1ccc2c(c1)C(=O)/C(=C/c1c(C)n(CCN3CCCCC3)c3ccc(OC)cc13)O2 [Compound 609, 1-[(2Z)-2-{[5-methoxy-2-methyl-1-(2-piperidin-1-ylethyl)-1H-indol-3-yl]methylidene}-3-oxo-2,3-dihydro-1-benzofuran-5-yl]-3-methylurea]

IC50 [1]: 206 nM | IC50 [2]: 1.25 nM
SMILES: CNC(=O)Nc1ccc2c(c1)C(=O)/C(=C/c1c(-c3ccccc3)n(CCN3CCN(C)CC3)c3ccc(OC)cc13)O2 [Compound 575, 1-[(2Z)-2-({5-methoxy-1-[2-(4-methylpiperazin-1-yl)ethyl]-2-phenyl-1H-indol-3-yl}methylene)-3-oxo-2,3-dihydro-1-benzofuran-5-yl]-3-methylurea]

IC50 [1]: 1150 nM | IC50 [2]: 451 nM
SMILES: COc1ccc2[nH]cc(/C=C3\Oc4cc(O)cc(C(N)=O)c4C3=O)c2c1 [Compound 518, (2Z)-6-hydroxy-2-[(5-methoxy-1H-indol-3-yl)methylene]-3-oxo-2,3-dihydro-1-benzofuran-4-carboxamide]

IC50 [1]: 1020 nM | IC50 [2]: 3.67 nM
SMILES: CNC(=O)Nc1ccc2c(c1)C(=O)/C(=C/c1c(-c3ccncc3)n(CCN3CCN(C)CC3)c3ccc(OC)cc13)O2 [Compound 590, 1-[(2Z)-2-({5-methoxy-1-[2-(4-methylpiperazin-1-yl)ethyl]-2-pyridin-4-yl-1Hindol-3-yl}methylene)-3-oxo-2,3-dihydro-1-benzofuran-5-yl]-3-methylurea]

IC50 [1]: 154 nM | IC50 [2]: 12.5 nM
SMILES: CNC(=O)Nc1ccc2c(c1)C(=O)/C(=C/c1c(CN(C)CCN(C)C)[nH]c3ccc(OC)cc13)O2 [Compound 613, 1-[(2Z)-2-{[2-({[2-(dimethylamino)ethyl](methyl)amino}methyl)-5-methoxy-1Hindol-3-yl]methylidene}-3-oxo-2,3-dihydro-1-benzofuran-5-yl]-3-methylurea]

Reference: patent publication US20090311217A1, “3-SUBSTITUTED-1H-INDOLE COMPOUNDS, THEIR USE AS MTOR KINASE AND PI3 KINASE INHIBITORS, AND THEIR SYNTHESES” (priority 2008, published 2009)
